13 molecules from patent US7595401B2, “Therapeutic compounds and their use in cancer” (Myriad Pharmaceuticals, Inc., priority 2006, dated 2009) can be followed below.

One assay has as its system purified human Hsp90. The assay is described as follows: Binding Assay: fluorescence polarization with BODIPY-labeled geldanamycin. The note with it: 5 μM compound, BODIPY-GM 10 nM, Hsp90 30 nM. A digest of the protocol: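 Fluorescence polarization competition with BODIPY-geldanamycin (10 nM final) and human Hsp90 (30 nM final) in HEPES-KOH pH 7.3 buffer with molybdate, NP-40, DTT; 2% DMSO, overnight at room temperature. Read 485/530 nm; percent inhibition from mP normalized to DMSO controls, fluorescent-compound points excluded.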
Background: Polarisation of emitted light reports the rotation of a fluorescent probe.
Broadly, the % Inhibition is the drop in the measured response relative to a control, in per cent. A high value points to a response far below the control. As to `COc1ccc(OC)c(Sc2nc3c(N)ncn(CCc4cccc5ccccc45)c-3n2)c1` [Example 68, 8-(2,5-dimethoxy-phenylsulfanyl)-3-(2-naphthalen-1-yl-ethyl)-3H-purin-6-ylamine], the “% Inhibition at 5 μM Compound Concentration” value (shortened to “% Inhibition”) is 0%.
Regarding `CCC(Cn1c(Sc2cc(OC)ccc2OC)nc2c(N)ncnc21)c1ccccc1` (centres unmarked) [Example 87, 8-(2,5-Dimethoxy-phenylsulfanyl)-9-(2-phenyl-butyl)-9H-purin-6-ylamine], the “% Inhibition” value worked out at 12%.
Regarding `CC(C)(C)OC(=O)N1CCC(=CCn2cnc(N)c3nc(Sc4cc5c(cc4Br)OCO5)nc2-3)CC1` [Example 389, tert-Butyl 4-(2-{6-amino-8-[(6-bromo-1,3-benzodioxol-5-yl)thio]-3H-purin-3-yl}ethylidene)piperidine-1-carboxylate], the “% Inhibition” value came to 38%.
As for `Nc1ncnc2c1nc(Sc1cc3c(cc1Br)OCO3)n2CCc1cccc(F)c1F` [Example 161, 8-(6-Bromo-benzo[1,3]dioxol-5-ylsulfanyl)-9-[2-(2,3-difluoro-phenyl)-ethyl]-9H-purin-6-ylamine], the “% Inhibition” value is 17%.
As for `COC(=O)c1ccnc(Sc2nc3c(N)ncn(CCC4CCN(C=O)CC4)c-3n2)c1` [Example 543, Methyl 2-({6-amino-3-[2-(1-formylpiperidin-4-yl)ethyl]-3 H-purin-8-yl}thio)isonicotinate], the “% Inhibition” value amounted to 0.00%.
For `COc1ccc(OC)c(Sc2nc3c(N)ncn(CCc4cc(F)cc(F)c4)c-3n2)c1` [Example 144, 3-[2-(3,5-difluoro-phenyl)-ethyl]-8-(2,5-dimethoxy-phenylsulfanyl)-3H-purin-6-ylamine], the “% Inhibition” value came out at 0%.
Same read-out and setting: under `Nc1ncnc2c1nc(Sc1cc3c(cc1Br)OCO3)n2CC(O)c1ccc(Cl)cc1Cl` (centres unmarked) [Example 177, 2-[6-Amino-8-(6-bromo-benzo[1,3]dioxol-5-ylsulfanyl)-purin-9-yl]-1-(2,4-dichloro-phenyl)-ethanol] stands 0%.

The assay is the same for the next values; noted with them: BODIPY-GM 10 nM, Hsp90 30 nM.
What is called IC50 is the concentration that inhibits the measured activity by half. `CCNC(=O)N1CCCC(CCn2c(Sc3cc4c(cc3Br)OCO4)nc3c(N)ncnc32)C1` (centres unmarked) [Example 435, 3-(2-{6-Amino-8-[(6-bromo-1,3-benzodioxol-5-yl)thio]-9H-purin-9-yl}ethyl)-N-ethylpiperidine-1-carboxamide] displayed a half-maximal inhibitory concentration (IC50) of 195 nM.
On the same count and under the same terms, under `COc1ccc(OC)c(Sc2nc3c(N)ncnc3n2CCc2ccc(Cl)cc2Cl)c1` [Example 27, 9-[2-(2,4-Dichloro-phenyl)-ethyl]-8-(2,5-dimethoxy-phenylsulfanyl)-9H-purin-6-ylamine] stands over 10000 nM; under `Nc1ncnc2c1nc(Sc1cc3c(cc1Br)OCO3)n2CCc1cccc(F)c1F` [Example 161, 8-(6-Bromo-benzo[1,3]dioxol-5-ylsulfanyl)-9-[2-(2,3-difluoro-phenyl)-ethyl]-9H-purin-6-ylamine], 320 nM.
As for `CCCN1CCCCC1CCn1c(Sc2cc3c(cc2Br)OCO3)nc2c(N)ncnc21` (centres unmarked) [Example 386, 8-[(6-Bromo-1,3-benzodioxol-5-yl)thio]-9-[2-(1-propylpiperidin-2-yl)ethyl]-9H-purin-6-amine], the concentration for half-maximal inhibition (IC50) stood at 110 nM.
Same read-out and setting: the value for `COCC(=O)N1CCC(CCn2c(Sc3cc4c(cc3Br)OCO4)nc3c(N)ncnc32)CC1` [Example 722, 8-[(6-Bromo-1,3-benzodioxol-5-yl)thio]-9-{2-[1-(methoxyacetyl)piperidin-4-yl]ethyl}-9H-purin-6-amine] was 130 nM.
The same measure, in the same setting: the value for `CCOC(=O)[C@@H]1C[C@H](CCn2c(Sc3cc4c(cc3Br)OCO4)nc3c(N)ncnc32)CCN1C(=O)OC(C)(C)C` (relative stereo) [Example 422, 1-tert-Butyl 2-ethyl cis-4-(2-{6-amino-8-[(6-bromo-1,3-benzodioxol-5-yl)thio]-9H-purin-9-yl}ethyl)piperidine-1,2-dicarboxylate] was over 3000 nM.
Same read-out and setting: the value for `COc1ccc(OC)c(Sc2nc3c(N)ncnc3n2CCc2c(Cl)cccc2Cl)c1` [Example 251, 9-[2-(2,6-Dichlorophenyl)ethyl]-8-[(2,5-dimethoxyphenyl)thio]-9H-purin-6-amine] was 75 nM.
